The record followed here is BindingDB's records for doi:10.1021/jm0205043 (University of California, 2003).

As usually defined, the IC50 is the midpoint of a concentration-inhibition curve. Lower therefore signals higher potency.

For the test, the target named is Cyclin-dependent kinase 2 (Homo sapiens, UniProt P24941). The test is described as follows: Inhibition of Cyclin-dependent kinase 2 (CDK2).

As for `CN1CCC(c2c(O)cc(O)c3c(O)c(Cc4ccc([N+](=O)[O-])cc4)oc23)CC1` [4,6-Dihydroxy-7-(1-methyl-piperidin-4-yl)-2-(4-nitro-benzylidene)-benzofuran-3-one], the IC50 was determined as 310 nM.
